Converted amounts (≈) assume the structure as drawn.
Legend:
physchem = conditions: PBS buffer with 1% dimethyl sulfoxide, pH 7.4
in vitro = conditions: Sprague-Dawley, rat, liver microsomes

solubility (physchem): 250 µM (≈ 96.9 µg/mL)
remaining at 1 h, 1000 µM (in vitro): 66%
Structure (SMILES): CCCCC(=O)N(Cc1ccc(-c2ccccc2C(=O)O)cc1)c1ccccc1
